Experimental data published in ChEMBL document CHEMBL4831484, “Identification of 3, 4-disubstituted pyridine derivatives as novel CDK8 inhibitors” (Eur J Med Chem, 2021).
Activity calls are given as the source filed them. The rule behind the calls is not given here.

Tests used:
[1] = target: CDK8/Cyclin C (Homo sapiens) (UniProt P49336+P24863); assay: Inhibition of CDK8/Cyclin C (unknown origin) at 10 uM measured after 1 hr by plate reader assay relative to control; type: protein-complex assay
[2] = tested on: HCT-116; assay: Antiproliferative activity against human HCT-116 cells assessed as inhibition of cell growth measured after 72 hrs by […]; type: functional
[3] = target: CDK8/Cyclin C (Homo sapiens, UniProt P49336); assay: Inhibition of CDK8/Cyclin C (unknown origin) measured after 1 hr by plate reader assay; type: protein-complex assay
[4] = tested on: A549; assay: Antiproliferative activity against human A549 cells assessed as inhibition of cell growth measured after 72 hrs by SRB assay; type: functional
[5] = tested on: MDA-MB-231; assay: Antiproliferative activity against human MDA-MB-231 cells assessed as inhibition of cell growth measured after 72 hrs by SRB assay; type: functional
[6] = tested on: KB; assay: Antiproliferative activity against human KB cells assessed as inhibition of cell growth measured after 72 hrs by SRB assay; type: functional
[7] = Antiproliferative activity against human KB-VIN cells assessed as inhibition of cell growth measured after 72 hrs by SRB assay; type: functional; settings: KBVIN
[8] = tested on: MCF7; assay: Antiproliferative activity against human MCF7 cells assessed as inhibition of cell growth measured after 72 hrs by SRB assay; type: functional
[9] = Toxicity in BALB/c mouse xenografted with human HCT-116 cells assessed as mortality at 150 mg/kg, po measured after 14 days; type: organism-based; settings: in vivo, 336 h, time 14 day
[10] = Toxicity in BALB/c mouse xenografted with human HCT-116 cells assessed as changes in body weight at 150 mg/kg, po measured after 14 days; type: organism-based; settings: in vivo, 336 h, time 14 day
[11] = tested on: HCT-116; assay: Antitumour activity against human HCT-116 cells assessed as decrease in tumor volume at 150 mg/kg, po measured after 14 days relative to control; type: functional; set-up: scale not given: the % may be the effect or the level left; settings: time 14 day
[12] = AUC (0 to 24h) in ICR mouse at 150 mg/kg, po measured after 24 hrs by LC-MS/MS analysis; type: ADME, organism-based; set-up: route oral, dose 150 mg/kg, time 24 hrs; settings: in vivo
[13] = MRT (0 to 24h) in ICR mouse at 150 mg/kg, po measured after 24 hrs by LC-MS/MS analysis; type: ADME, organism-based; settings: in vivo
[14] = Half-life in ICR mouse at 150 mg/kg, po measured after 24 hrs by LC-MS/MS analysis; type: ADME, organism-based; settings: in vivo
[15] = Tmax in ICR mouse at 150 mg/kg, po measured after 24 hrs by LC-MS/MS analysis; type: ADME, organism-based; settings: in vivo
[16] = Cmax in ICR mouse at 150 mg/kg, po measured after 24 hrs by LC-MS/MS analysis; type: ADME, organism-based; set-up: route oral, time 24 hrs, dose 150 mg/kg; settings: in vivo
[17] = target: Cyclin-dependent kinase 8 (Homo sapiens) (UniProt P49336); assay: Inhibition of CDK8 (unknown origin) at 10 uM
[18] = target: Cyclin-dependent kinase 7 (Homo sapiens) (UniProt P50613); assay: Inhibition of CDK7 (unknown origin) at 10 uM
[19] = tested on: MDA-MB-231; assay: Induction of cell cycle arrest in human MDA-MB-231 cells assessed as accumulation of cells at G2/M phase measured after 24 hrs by PI staining based flow cytometry assay; type: functional

Sequence of CDK8/Cyclin C (P49336 whole entry): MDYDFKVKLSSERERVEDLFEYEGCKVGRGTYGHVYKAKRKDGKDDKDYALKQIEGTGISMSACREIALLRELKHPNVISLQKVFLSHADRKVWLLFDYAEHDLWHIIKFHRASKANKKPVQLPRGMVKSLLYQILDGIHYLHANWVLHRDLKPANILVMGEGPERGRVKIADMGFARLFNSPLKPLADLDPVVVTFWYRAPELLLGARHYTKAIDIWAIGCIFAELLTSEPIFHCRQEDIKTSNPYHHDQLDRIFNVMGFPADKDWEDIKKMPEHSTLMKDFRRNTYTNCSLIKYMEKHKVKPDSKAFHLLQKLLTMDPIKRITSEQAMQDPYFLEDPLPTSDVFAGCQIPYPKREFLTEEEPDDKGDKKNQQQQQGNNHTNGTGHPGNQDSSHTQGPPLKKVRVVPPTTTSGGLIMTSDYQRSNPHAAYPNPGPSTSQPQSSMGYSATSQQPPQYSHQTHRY
Sequence of CDK8/Cyclin C (P24863 whole entry, further chain): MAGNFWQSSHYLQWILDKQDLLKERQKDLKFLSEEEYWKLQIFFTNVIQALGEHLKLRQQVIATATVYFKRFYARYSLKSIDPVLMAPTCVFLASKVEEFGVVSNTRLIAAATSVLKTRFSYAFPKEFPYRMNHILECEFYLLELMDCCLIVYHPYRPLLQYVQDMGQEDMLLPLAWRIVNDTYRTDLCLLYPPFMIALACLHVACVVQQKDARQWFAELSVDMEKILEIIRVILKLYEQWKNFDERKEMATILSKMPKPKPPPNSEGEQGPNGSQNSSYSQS
Sequence of Cyclin-dependent kinase 8 (Homo sapiens) (P49336 whole entry): as the sequence (P49336 whole entry) above
Sequence of Cyclin-dependent kinase 7 (Homo sapiens) (P50613 whole entry): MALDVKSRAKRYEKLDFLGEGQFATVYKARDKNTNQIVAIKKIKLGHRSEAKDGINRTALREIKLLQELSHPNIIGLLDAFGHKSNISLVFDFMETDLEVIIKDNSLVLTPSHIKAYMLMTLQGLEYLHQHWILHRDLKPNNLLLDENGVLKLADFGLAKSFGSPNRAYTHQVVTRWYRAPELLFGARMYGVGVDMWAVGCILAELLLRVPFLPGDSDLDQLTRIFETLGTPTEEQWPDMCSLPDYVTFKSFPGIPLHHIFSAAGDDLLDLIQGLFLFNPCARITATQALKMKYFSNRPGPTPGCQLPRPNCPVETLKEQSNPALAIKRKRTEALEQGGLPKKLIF

Row | Compound | inhibition [1] [%] | GI50 [2] [µM] | IC50 [3] [µM] | GI50 [4] [µM] | GI50 [5] [µM] | GI50 [6] [µM] | GI50 [7] [µM] | GI50 [8] [µM] | Activity [9] | Activity [10] | Activity [11] [%] | AUC(0-t) at 24 h [12] [ng·h/mL] | MRT last at 24 h [13] [h] | half-life [14] [h] | Tmax [15] [h] | Cmax [16] [ng/mL] | inhibition [17] | inhibition [18] | Activity [19]
1 | COC(=O)/C=C/c1ccncc1-c1ccc2ccccc2c1 | 102 | 0.35 | 0.0406 | 0.76 | 4.71 | 6.73 | 5.46 | 8.17 | Non-Toxic | Non-Toxic | 44 | 153 | 2.68 | 3.93 | 0.57 | 46.6 | – | – | –
2 | O=C(/C=C/c1ccncc1-c1ccc2cc[nH]c2c1)N1CCOCC1 | 102 | > 30 | 0.0439 | > 10 | > 10 | > 10 | > 10 | > 10 | – | – | – | – | – | – | – | – | Active | Active | –
3 | CN(C)C(=O)/C=C/c1ccncc1-c1ccc2ccccc2c1 | 100 | 4.54 | 0.0301 | 5.8 | 7.99 | 7.76 | 4.93 | 8.19 | – | – | – | – | – | – | – | – | – | – | Dose-Dependent Effect
